From the NIST ThermoML archive (doi:10.1021/je060271a)
“And” between values parts separate entries of the source, which are not always exact repeats. Equal values may be shown once. Numbers after ± are expanded uncertainties.

Settings: 303.16 K, Liquid, Vibrating tube method

CCCC(=O)OCC(COC(=O)CCC)(COC(=O)CCC)COC(=O)CCC [pentaerythritol tetrabutyrate]
Settings	mass density
3999.8 kPa	1044.9 ± 1.2 kg/m3
4021.6 kPa	1044.7 ± 1.2 kg/m3
4043.6 kPa	1044.8 ± 1.2 kg/m3
4069.7 kPa	1044.7 ± 1.2 kg/m3
4092.1 kPa	1044.9 ± 1.2 kg/m3
4114.1 kPa	1044.9 ± 1.2 kg/m3
4137.5 kPa	1044.9 ± 1.2 kg/m3
4161.7 kPa	1045 ± 1.2 kg/m3
4182.5 kPa	1044.9 ± 1.2 kg/m3
4206.7 kPa	1045.1 ± 1.2 kg/m3
4227.1 kPa	1044.9 ± 1.2 kg/m3
4251.9 kPa	1044.9 ± 1.2 kg/m3
4272.5 kPa	1044.9 ± 1.2 kg/m3
4293.5 kPa	1045.1 ± 1.2 kg/m3
4314.4 kPa	1045 ± 1.2 kg/m3
4335.5 kPa	1045 ± 1.2 kg/m3
4361 kPa	1045.1 ± 1.2 kg/m3
4381.9 kPa	1045 ± 1.2 kg/m3
4403.9 kPa	1045 ± 1.2 kg/m3
4429.5 kPa	1045.1 ± 1.2 kg/m3
4451.4 kPa	1045.1 ± 1.2 kg/m3
4473.3 kPa	1044.9 ± 1.2 kg/m3
4495 kPa	1045.2 ± 1.2 kg/m3
4520.9 kPa	1045.2 ± 1.2 kg/m3
4542.9 kPa	1045.2 ± 1.2 kg/m3
4569.8 kPa	1045.3 ± 1.2 kg/m3
4592.6 kPa	1045.1 ± 1.3 kg/m3
4616.5 kPa	1045.2 ± 1.2 kg/m3
4644.7 kPa	1045.3 ± 1.2 kg/m3
4667.4 kPa	1045.2 ± 1.2 kg/m3
4686.4 kPa	1045.3 ± 1.2 kg/m3
4703.6 kPa	1045.4 ± 1.2 kg/m3
4720.4 kPa	1045.3 ± 1.2 kg/m3
4741.5 kPa	1045.3 ± 1.2 kg/m3
4758.3 kPa	1045.4 ± 1.2 kg/m3
4771.9 kPa	1045.4 ± 1.2 kg/m3
4786.8 kPa	1045.4 ± 1.2 kg/m3
4797.7 kPa	1045.2 ± 1.2 kg/m3
4827.1 kPa	1045.4 ± 1.2 kg/m3
4830.1 kPa	1045.3 ± 1.2 kg/m3
4830.9 kPa	1045.3 ± 1.2 kg/m3
4834.9 kPa	1045.4 ± 1.2 kg/m3
4837.9 kPa	1045.4 ± 1.2 kg/m3
4839.4 kPa	1045.4 ± 1.2 kg/m3
4840.5 kPa	1045.3 ± 1.2 kg/m3
4841.7 kPa	1045.4 ± 1.2 kg/m3
4842.2 kPa	1045.4 ± 1.2 kg/m3
4842.7 kPa	1045.4 ± 1.2 kg/m3
4842.9 kPa	1045.3 ± 1.2 kg/m3
4843.4 kPa	1045.4 ± 1.2 kg/m3 and 1045.3 ± 1.2 kg/m3
4843.9 kPa	1045.3 ± 1.2 kg/m3 and 1045.4 ± 1.2 kg/m3
4844.1 kPa	1045.3 ± 1.2 kg/m3
4844.4 kPa	1045.4 ± 1.2 kg/m3
4865 kPa	1045.3 ± 1.2 kg/m3
4897.7 kPa	1045.4 ± 1.2 kg/m3
4931.1 kPa	1045.4 ± 1.2 kg/m3
4970.1 kPa	1045.4 ± 1.2 kg/m3
4994.6 kPa	1045.4 ± 1.2 kg/m3
5016.4 kPa	1045.4 ± 1.2 kg/m3
5038.9 kPa	1045.5 ± 1.2 kg/m3
5061.8 kPa	1045.5 ± 1.2 kg/m3
5088.8 kPa	1045.5 ± 1.2 kg/m3
5111.4 kPa	1045.4 ± 1.2 kg/m3
5139.1 kPa	1045.4 ± 1.2 kg/m3
5162.8 kPa	1045.5 ± 1.2 kg/m3
5186.5 kPa	1045.5 ± 1.2 kg/m3
5210.6 kPa	1045.6 ± 1.2 kg/m3
5239.4 kPa	1045.7 ± 1.2 kg/m3
5264.7 kPa	1045.6 ± 1.2 kg/m3
5290.3 kPa	1045.6 ± 1.2 kg/m3
5317.3 kPa	1045.7 ± 1.2 kg/m3
5342.9 kPa	1045.5 ± 1.2 kg/m3
5367.5 kPa	1045.7 ± 1.2 kg/m3
5393.1 kPa	1045.6 ± 1.2 kg/m3
5414.2 kPa	1045.7 ± 1.2 kg/m3
5436 kPa	1045.7 ± 1.2 kg/m3
5462.1 kPa	1045.7 ± 1.2 kg/m3
5484.2 kPa	1045.7 ± 1.2 kg/m3
5506.7 kPa	1045.7 ± 1.2 kg/m3
5533.5 kPa	1045.7 ± 1.2 kg/m3
5556 kPa	1045.9 ± 1.2 kg/m3
5579 kPa	1045.8 ± 1.2 kg/m3
5603.2 kPa	1045.8 ± 1.2 kg/m3
5627.4 kPa	1045.9 ± 1.3 kg/m3
5651.3 kPa	1045.8 ± 1.2 kg/m3
5674.9 kPa	1045.9 ± 1.2 kg/m3
5703.6 kPa	1045.9 ± 1.2 kg/m3
5728 kPa	1046 ± 1.2 kg/m3
5753.1 kPa	1045.9 ± 1.2 kg/m3
5783.4 kPa	1046 ± 1.2 kg/m3
5808.8 kPa	1046 ± 1.2 kg/m3
5831.6 kPa	1045.9 ± 1.2 kg/m3
5852.2 kPa	1046 ± 1.2 kg/m3
5876.5 kPa	1046.1 ± 1.2 kg/m3
5897.6 kPa	1046.1 ± 1.3 kg/m3
5918.4 kPa	1046.1 ± 1.2 kg/m3
5939.8 kPa	1046.1 ± 1.3 kg/m3
5964.7 kPa	1046.1 ± 1.2 kg/m3
5986.2 kPa	1046.1 ± 1.2 kg/m3
6007.4 kPa	1046.3 ± 1.2 kg/m3
6033.9 kPa	1046.1 ± 1.2 kg/m3
6056.2 kPa	1046.2 ± 1.2 kg/m3
6079 kPa	1046.2 ± 1.2 kg/m3
6101.4 kPa	1046.1 ± 1.2 kg/m3
6124.1 kPa	1046.2 ± 1.2 kg/m3
6142.1 kPa	1046.1 ± 1.2 kg/m3
6159.7 kPa	1046.1 ± 1.2 kg/m3
6178 kPa	1046.1 ± 1.2 kg/m3
6190.3 kPa	1046.2 ± 1.2 kg/m3
6202.4 kPa	1046.2 ± 1.2 kg/m3
6213.1 kPa	1046.2 ± 1.2 kg/m3
6221.2 kPa	1046.3 ± 1.2 kg/m3
6226.4 kPa	1046.2 ± 1.2 kg/m3
6231.1 kPa	1046.2 ± 1.2 kg/m3
6237.5 kPa	1046.3 ± 1.2 kg/m3
6242.1 kPa	1046.3 ± 1.2 kg/m3
6247.5 kPa	1046.2 ± 1.3 kg/m3
6252.7 kPa	1046.3 ± 1.3 kg/m3
6258.9 kPa	1046.2 ± 1.3 kg/m3
6263.7 kPa	1046.2 ± 1.3 kg/m3
6268.7 kPa	1046.4 ± 1.3 kg/m3
6273.9 kPa	1046.3 ± 1.3 kg/m3
6280.5 kPa	1046.3 ± 1.3 kg/m3
6285.5 kPa	1046.3 ± 1.3 kg/m3
6290.3 kPa	1046.4 ± 1.3 kg/m3
6296 kPa	1046.2 ± 1.2 kg/m3
6300.7 kPa	1046.2 ± 1.2 kg/m3
6304.9 kPa	1046.2 ± 1.2 kg/m3
6309.5 kPa	1046.2 ± 1.2 kg/m3
6312.6 kPa	1046.3 ± 1.2 kg/m3
6314.7 kPa	1046.4 ± 1.3 kg/m3
6316.4 kPa	1046.2 ± 1.2 kg/m3
6325.3 kPa	1046.3 ± 1.3 kg/m3
6353.3 kPa	1046.3 ± 1.3 kg/m3
6384.4 kPa	1046.4 ± 1.2 kg/m3
6414.9 kPa	1046.3 ± 1.2 kg/m3
6445.5 kPa	1046.5 ± 1.3 kg/m3
6469.5 kPa	1046.4 ± 1.3 kg/m3
6493.9 kPa	1046.3 ± 1.2 kg/m3
6597.9 kPa	1046.5 ± 1.3 kg/m3
6628 kPa	1046.5 ± 1.3 kg/m3
6653.7 kPa	1046.6 ± 1.3 kg/m3
6679.6 kPa	1046.5 ± 1.3 kg/m3
6706.4 kPa	1046.5 ± 1.3 kg/m3
6732.8 kPa	1046.5 ± 1.3 kg/m3
6763.9 kPa	1046.7 ± 1.3 kg/m3
